From patent publication US9827292B2, “Use of KGF in the treatment of menopausal disorders” (Università degli Studi di Roma “La Sapienza”, priority 2012, dated 2017)

Tests used:
Assay type in all cases: cell-based, human
MAPK ERK1 and 2 = assay: Western blot of ERK phosphorylation in MCF-7 cells; conditions: 20 ng/ml, FIG. 2A; for activation (phosphorylation) of ERK1 and 2: 5 and 30 minutes of treatment
Procedure: The oestrogen receptor α-positive MCF-7 human breast adenocarcinoma cell line, acquired from American Type Culture Collection (no. HTB-22, ATCC-LGC Promochem, Teddington, UK), was cultured in Dulbecco's modified eagle's medium (DMEM; Invitrogen, Karlsruhe, Germany), supplemented with 10% foetal bovine serum (FBS; Invitrogen) and antibiotics. Primary cultures of human oestrogen-sensitive keratinocytes (KCs) were established from 1 cm^2 full-thickness mucosal biopsy of the vaginal vestibule. Following enzymatic dissociation, the keratinocytes were seeded onto culture plates coated with collagen IV (10 mg/ml), as previously reported [Panici et al, 2007], and were maintained in basal medium of the keratinocytes (KBM, Lonza) supplemented with aliquots of KGM (Lonza), with medium change twice a week. For all the experiments with 17β-oestradiol (E2) and tamoxifen, the MCF-7 cells were cultivated in DMEM without phenol red with 10% FBS treated with dextran/carbon (Invitrogen), and the KCs were transferred to a steroid medium of reduced concentration (KGM without EGF and BPE). Both MCF-7 and KC were deprived of serum for 4 hours and then treated for 48 h with human recombinant KGF (Upstate Biotechnology, Lake Placid, N.Y.), E2 (Sigma-Aldrich, Milan, Italy), tamoxifen (Sigma-Aldrich, 100 nM) or combinations thereof.
MCF-7 cells untreated or treated with KGF or E2 were lysed in RIPA buffer. Total proteins (50-150 μg) were broken down under reducing conditions by 7%-10% SDS-PAGE and transferred to Immobilon-FL membranes (Millipore, Billerica, Mass.). The membranes were blocked in TBS containing 0.5% Tween 20 (TBS-T) and 5% milk for 1 hour at 25° C. and were then washed twice for 20 minutes in each case in TBS-T. The membranes were incubated overnight at 4° C. with the primary antibody. […] The bound antibody was detected by enhanced chemiluminescence detection reagents (Pierce Biotechnology, Inc, Rockford, Ill., USA), according to manufacturer's instructions. […] Densitometric analysis was performed using Quantity One Program (Bio-Rad Laboratories srl, Segrate, MI, Italy).

MAPK p38 = assay: Western blot of p38 phosphorylation in MCF-7 cells; conditions: 20 ng/ml, 5 or 30 minutes, FIG. 2B
Procedure: The oestrogen receptor α-positive MCF-7 human breast adenocarcinoma cell line, acquired from American Type Culture Collection (no. HTB-22, ATCC-LGC Promochem, Teddington, UK), was cultured in Dulbecco's modified eagle's medium (DMEM; Invitrogen, Karlsruhe, Germany), supplemented with 10% foetal bovine serum (FBS; Invitrogen) and antibiotics. Primary cultures of human oestrogen-sensitive keratinocytes (KCs) were established from 1 cm^2 full-thickness mucosal biopsy of the vaginal vestibule. Following enzymatic dissociation, the keratinocytes were seeded onto culture plates coated with collagen IV (10 mg/ml), as previously reported [Panici et al, 2007], and were maintained in basal medium of the keratinocytes (KBM, Lonza) supplemented with aliquots of KGM (Lonza), with medium change twice a week. […]
(§1) MCF-7 cells untreated or treated with KGF or E2 were lysed in RIPA buffer. […] The bound antibody was detected by enhanced chemiluminescence detection reagents (Pierce Biotechnology, Inc, Rockford, Ill., USA), according to manufacturer's instructions. […] Densitometric analysis was performed using Quantity One Program (Bio-Rad Laboratories srl, Segrate, MI, Italy).

ERalpha [1] = assay: Nucleocytoplasmic fractionation and Western blot for ER in MCF-7 cells; conditions: 5 or 30 min treatment, FIG. 4A
Procedure: (§2) The oestrogen receptor α-positive MCF-7 human breast adenocarcinoma cell line, acquired from American Type Culture Collection (no. HTB-22, ATCC-LGC Promochem, Teddington, UK), was cultured in Dulbecco's modified eagle's medium (DMEM; Invitrogen, Karlsruhe, Germany), supplemented with 10% foetal bovine serum (FBS; Invitrogen) and antibiotics. Primary cultures of human oestrogen-sensitive keratinocytes (KCs) were established from 1 cm^2 full-thickness mucosal biopsy of the vaginal vestibule. […]
as §1
The cells were harvested in PBS and centrifuged at 2000 rpm for 5 minutes to obtain a pellet, resuspended in cellular lysis buffer containing Hepes 10 mM pH 8, 50 mM NaCl, 1 mM EDTA pH 8, 0.2% TritonX100, sucrose 500 mM and protease inhibitors, stirred, and placed in ice for 15 min. […] The efficiency of the fractionation was analysed by means of immunoblotting using an anti-β-tubulin antibody as cytoplasmic marker and an anti-lamin B antibody as nuclear marker.

ERalpha [2] = assay: Immunofluorescence localisation of ER in MCF-7 cells; conditions: 5 or 30 min treatment, FIG. 4B
Procedure: as §2
The cells, grown on glass coverslips, were treated as described above, then fixed in 4% paraformaldehyde in phosphate-buffered saline (PBS) for 30 min at 25° C., followed by treatment with 0.1 M glycine in PBS for 20 min at 25° C. and with 0.1% Triton X-100 in PBS for an additional 5 min at 25° C. to allow permeabilisation. […] Fluorescence signals were analysed by recording stained images using a cooled CCD colour digital camera SPOT-2 (Diagnostic Instruments Incorporated, Sterling Heights, Mich.) and Axiovision software (Carl Zeiss Inc., Oberkochen, Germany).
The percentage of Ki67-positive cells was evaluated by counting, for each treatment, a total of 500 cells, randomly taken from ten microscopic fields in three different experiments, expressed as mean value±95% CI and recorded as graphs. […]

## C[C@]12CC[C@@H]3c4ccc(O)cc4CC[C@H]3[C@@H]1CC[C@@H]2O [E2, 17β-oestradiol]
MAPK ERK1 and 2
  activation (phosphorylation) of ERK1 and 2: less consistent rise in the levels of phosphorylation of ERK1 and 2 limited to 5 min of treatment
MAPK ERK1 and 2; 30 min
  activation of ERK 1 and 2 at longer times: considerably reduced
MAPK p38
  phosphorylation of p38: able to phosphorylate the protein p38
ERalpha [1]
  redistribution of ER between cytoplasmic and nuclear fractions: dramatic redistribution of ER in the nucleus
ERalpha [2]
  cellular localisation of ER by immunofluorescence: movement of ER in the nucleus

B1: keratinocyte growth factor (protein, listed as Homo sapiens)
chain: MHKWILTWILPTLLYRSCFHIICLVGTISLACNDMTPEQMATNVNCSSPERHTRSYDYMEGGDIRVRRLFCRTQWYLRIDKRGKVKGTQEMKNNYNIMEIRTVAVGIVAIKGVESEFYLAMNKEGKLYAKKECNEDCNFKELILENHYNTYASAKWTHNGGEMFVALNQKGIPVRGKKTKKEQKTAHFLPMAIT
notes: human recombinant KGF (Upstate Biotechnology)
MAPK ERK1 and 2
  activation (phosphorylation) of ERK1 and 2: consistent and constant activation of MAPK
MAPK p38
  phosphorylation of p38: able to phosphorylate the protein p38
ERalpha [1]
  redistribution of ER between cytoplasmic and nuclear fractions: does not appear able to induce any significant redistribution of the receptor in the nucleus
ERalpha [2]
  cellular localisation of ER by immunofluorescence: unexpected localisation of ER on the plasmatic membrane
